Measurements taken from patent publication US5622962A, “5α-reductase inhibitors” (priority 1995, dated 1997).
“And” between values parts separate entries of the source, which are not always exact repeats. Identical values can stand only once.

Tests used:
[1] = molecular target: T1, Type I 5α-Reductase from Human Scalp (Homo sapiens, UniProt P18405); test: Human Type I 5α-reductase assay (conversion of [3H]-testosterone to 5α-reduced metabolites); format: biochemical; conditions: 50 nM [3H]-testosterone, pH 7.5, 25°, 180 min, compared to control reaction mixtures; for inhibition at 0.3 µM: pH 7.5, 0.3 μM, read-out: percent inhibition of Type I AR; for percent inhibition of Type I AR: 0.3 μM
T1 construct: Scalp punch biopsies from graft recipient sites were obtained from human hair transplant procedures; from tissue; host or cells: human scalp punch biopsies (hair transplant graft recipient sites), homogenate, 100,000×g pellet
T1 sequence (P18405 1-259): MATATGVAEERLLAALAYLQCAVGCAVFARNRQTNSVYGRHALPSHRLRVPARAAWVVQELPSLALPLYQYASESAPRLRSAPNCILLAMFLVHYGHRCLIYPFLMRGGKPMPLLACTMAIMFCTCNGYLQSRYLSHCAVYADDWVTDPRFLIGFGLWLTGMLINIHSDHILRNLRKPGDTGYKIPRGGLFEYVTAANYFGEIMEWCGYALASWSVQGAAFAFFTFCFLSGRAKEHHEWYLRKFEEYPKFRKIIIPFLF

[2] = molecular target: T2, Type II 5α-Reductase from Human Prostate (Homo sapiens, UniProt P31213); test: Human Type II 5α-reductase assay (conversion of [3H]-testosterone to 5α-reduced metabolites); format: biochemical; conditions: sodium acetate pH 5.5, 25°, 30 min, compared to control reaction mixtures; for inhibition at 0.3 µM: pH 5.5, 0.3 μM, read-out: percent inhibition of Type II AR; for percent inhibition of Type II AR: 0.3 μM
T2 construct: The same procedure as above was used for preparations using tissue from prostate surgery; from tissue; host or cells: human prostate tissue from surgery, homogenate, 100,000×g pellet
T2 sequence (P31213 1-254): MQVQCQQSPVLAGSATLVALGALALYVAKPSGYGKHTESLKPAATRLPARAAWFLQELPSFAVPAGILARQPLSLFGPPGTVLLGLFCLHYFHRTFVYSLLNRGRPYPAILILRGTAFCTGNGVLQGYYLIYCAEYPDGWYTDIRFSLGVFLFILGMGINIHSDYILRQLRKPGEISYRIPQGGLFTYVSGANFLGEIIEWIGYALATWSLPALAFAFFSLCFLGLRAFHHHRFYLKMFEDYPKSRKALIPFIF

CN1C(=O)CC[C@]2(C)c3ccc(Sc4nnnn4-c4ccccc4)cc3CC[C@@H]12 [Example 154, (+)-(4aR)-(10bR)-4-methyl-8-(2-[3-phenyl]tetrazoylthio)-10b-methyl-1,2,3,4,4a,5,6,10b-octahydrobenzo[f]quinolin-3-one] gave an inhibition at 0.3 µM [1] of 56% and an inhibition at 0.3 µM [2] of 25%.

For CN1C(=O)CC[C@]2(C)c3ccc(Sc4ccc(C(F)(F)F)cn4)cc3CC[C@@H]12 [Example 155, (+)-(4aR)-(10bR)-4-methyl-8-(2-[5-trifluoromethyl]pyridylthio)-10b-methyl-1,2,3,4,4a,5,6,10b-octahydrobenzo[f]-quinolin-3-one], the inhibition at 0.3 µM [1] was 58% and the inhibition at 0.3 µM [2] was 60%.

For CN1C(=O)CC[C@]2(C)c3ccc(Sc4n[nH]c5ccccc45)cc3CC[C@@H]12 [Example 156, (+)-(4aR)-(10bR)-4-methyl-8-(3-indazolylthio)-10b-methyl-1,2,3,4,4a,5,6,10b-octahydrobenzo[f]quinolin-3-one], the inhibition at 0.3 µM [1] was 71% and the inhibition at 0.3 µM [2] was 70%.

In the case of CC(C)c1cccc2sc(Sc3ccc4c(c3)CC[C@H]3N(C)C(=O)CC[C@]43C)nc12 [Example 157, (+)-(4aR)-(10bR)-4-methyl-8-(2-[4-isopropyl]benzothiazolylthio)-10b-methyl-1,2,3,4,4a,5,6,10b-octahydrobenzo[f]-quinolin-3-one], the inhibition at 0.3 µM [1] is reported as 88% and the inhibition at 0.3 µM [2] is reported as 79%.

Molecule CN1C(=O)CC[C@]2(C)c3ccc(Sc4nc5ccc(Cl)cc5s4)cc3CC[C@@H]12 [Example 158, (+)-(4aR)-(10bR)-4-methyl-8-(6-chloro-2-benzothiazolylthio)-10b-methyl-1,2,3,4,4a,5,6,10b-octahydrobenzo[f]quinolin-3-one] has an inhibition at 0.3 µM [1] of 78% and an inhibition at 0.3 µM [2] of 63%.

For Cc1cccc2sc(Sc3ccc4c(c3)CC[C@H]3N(C)C(=O)CC[C@]43C)nc12 [Example 159, (+)-(4aR)-(10bR)-4-methyl-8-(4-methyl-2-benzothiazolylthio)-10b-methyl-I, 2,3,4,4a,5,6,10b-octahydrobenzo[f]quinolin-3-one], the “percent inhibition of Type I AR” value [1] was 87%, the “percent inhibition of Type II AR” value [2] was 83% and the inhibition at 0.3 µM [2] was 87%.

In the case of CN1C(=O)CC[C@]2(C)c3ccc(Sc4nc5cc([N+](=O)[O-])ccc5s4)cc3CC[C@@H]12 [Example 160, (+)-(4aR)-(10bR)-4-methyl-8-(5-nitro-2-benzothiazolylthio)-10b-methyl-1,2,3,4,4a,5,6,10b-octahydrobenzo[f]quinolin-3-one], the inhibition at 0.3 µM [1] is reported as 61% and the inhibition at 0.3 µM [2] is reported as 38%.

COc1ccc2nc(Sc3ccc4c(c3)CC[C@H]3N(C)C(=O)CC[C@]43C)sc2c1 [Example 161, (+)-(4aR)-(10bR)-4-methyl-8-(6-methoxy-2-benzothiazolylthio)-10b-methyl-1,2,3,4,4a,5,6,10b-octahydrobenzo[f]quinolin-3-one] showed an inhibition at 0.3 µM [1] of 71% and an inhibition at 0.3 µM [2] of 51%.

For CN1C(=O)CC[C@]2(C)c3ccc(Sc4nc5c(F)cccc5s4)cc3CC[C@@H]12 [Example 162, (+)-(4aR)-(10bR)-4-methyl-8-(4-fluoro-2-benzothiazolylthio)-10b-methyl-1,2,3,4,4a,5,6,10b-octahydrobenzo[f]quinolin-3-one], the inhibition at 0.3 µM [1] was 79% and the inhibition at 0.3 µM [2] was 87%.

Work on CN1C(=O)CC[C@]2(C)c3ccc(Sc4nc5c(ccc6ccccc65)s4)cc3CC[C@@H]12 [Example 163, (+)-(4aR)-(10bR)-4-methyl-8-(2-naphtho<1,2-d>-thiazolylthio)-10b-methyl-1,2,3,4,4a,5,6,10b-octahydrobenzo[f]-quinolin-3-one] yielded an inhibition at 0.3 µM [1] of 80% and an inhibition at 0.3 µM [2] of 86%.

With CN1C(=O)CC[C@]2(C)c3ccc(Sc4nc5c(Cl)cccc5s4)cc3CC[C@@H]12 [Example 164, (+)-(4aR)-(10bR)-4-methyl-8-(4-chloro-2-benzothiazolylthio)-10b-methyl-1,2,3,4,4a,5,6,10b-octahydrobenzo[f]quinolin-3-one] the “percent inhibition of Type I AR” value [1] was 87%, the inhibition at 0.3 µM [1] was 85% and the “percent inhibition of Type II AR” value [2] was 85% and 79%. For the same molecule, the inhibition at 0.3 µM [2] was 86%.

For CN1C(=O)CC[C@]2(C)c3ccc(Sc4nc5cc(Cl)c(Cl)cc5s4)cc3CC[C@@H]12 [Example 165, (+)-(4aR)-(10bR)-4-methyl-8-(5,6-dichloro-2-benzothiazolylthio)-10b-methyl-1,2,3,4,4a,5,6,10b-octahydrobenzo[f]-quinolin-3-one], the inhibition at 0.3 µM [1] was 61% and the inhibition at 0.3 µM [2] was 74%.

CN1C(=O)CC[C@]2(C)c3ccc(Sc4ccc([N+](=O)[O-])cn4)cc3CC[C@@H]12 [Example 166, (+)-(4aR)-(10bR)-4-methyl-8-(5-nitro-2-pyridinylthio)-10b-methyl-1,2,3,4,4a,5,6,10b-octahydrobenzo[f]quinolin-3-one] was tested, and the inhibition at 0.3 µM [1] was 50% and the inhibition at 0.3 µM [2] was 49%.

CN1C(=O)CC[C@]2(C)c3ccc(Sc4ncccc4[N+](=O)[O-])cc3CC[C@@H]12 [Example 167, (+)-(4aR)-(10bR)-4-methyl-8-(3-nitro-2-pyridinylthio)-10b-methyl-1,2,3,4,4a,5,6,10b-octahydrobenzo[f]quinolin-3-one] showed an inhibition at 0.3 µM [1] of 62% and an inhibition at 0.3 µM [2] of 31%.

CN1C(=O)CC[C@]2(C)c3ccc(Sc4ccc5cc([N+](=O)[O-])ccc5n4)cc3CC[C@@H]12 [Example 168, (+)-(4aR)-(10bR)-4-methyl-8-(6-nitro-2-quinolinylthio)-10b-methyl-1,2,3,4,4a,5,6,10b-octahydrobenzo[f]quinolin-3-one] was tested, and the inhibition at 0.3 µM [1] was 85% and the inhibition at 0.3 µM [2] was 41%.

In the case of CN1C(=O)CC[C@]2(C)c3ccc(Sc4ccc5c([N+](=O)[O-])cccc5n4)cc3CC[C@@H]12 [Example 169, (+)-(4aR)-(10bR)-4-methyl-8-(5-nitro-2-quinolinylthio)-10b-methyl-1,2,3,4,4a,5,6,10b-octahydrobenzo[f]quinolin-3-one], the inhibition at 0.3 µM [1] is reported as 75% and the inhibition at 0.3 µM [2] is reported as 61%.

CN1C(=O)CC[C@]2(C)c3ccc(Sc4ccc(-c5ccccc5)nn4)cc3CC[C@@H]12 [Example 171, (+)-(4aR)-(10bR)-4-methyl-8-(6-phenyl-3-pyridazinylthio)-10b-methyl-1,2,3,4,4a,5,6,10b-octahydrobenzo[f]quinolin-3-one] gave an inhibition at 0.3 µM [1] of 43% and an inhibition at 0.3 µM [2] of 63%.

In the case of CN1C(=O)CC[C@]2(C)c3ccc(Sc4nc(-c5ccccc5)nc5ccccc45)cc3CC[C@@H]12 [Example 172, (+)-(4aR)-(10bR)-4-methyl-8-(2-phenyl-4-quinazolinylthio)-10b-methyl-1,2,3,4,4a,5,6,10b-octahydrobenzo[f]quinolin-3-one], the inhibition at 0.3 µM [1] is reported as 55% and the inhibition at 0.3 µM [2] is reported as 36%.

For CN1C(=O)CC[C@]2(C)c3ccc(Sc4ccc5cc(F)ccc5n4)cc3CC[C@@H]12 [Example 173, (+)-(4aR)-(10bR)-4-methyl-8-(6-fluoro-2-quinolinylthio)-10b-methyl-1,2,3,4,4a,5,6,10b-octahydrobenzo[f]quinolin-3-one], the inhibition at 0.3 µM [1] was 65%, the “percent inhibition of Type II AR” value [2] was 77% and the inhibition at 0.3 µM [2] was 78%.

Molecule CN1C(=O)CC[C@]2(C)c3ccc(Sc4ccc5cccc(F)c5n4)cc3CC[C@@H]12 [Example 174, (+)-(4aR)-(10bR)-4-methyl-8-(8-fluoro-2-quinolinylthio)-10b-methyl-1,2,3,4,4a,5,6,10b-octahydrobenzo[f]quinolin-3-one] has an inhibition at 0.3 µM [1] of 82% and an inhibition at 0.3 µM [2] of 80%.

CN1C(=O)CC[C@]2(C)c3ccc(Sc4nccc5sccc45)cc3CC[C@@H]12 [Example 175, (+)-(4aR)-(10bR)-4-methyl-8-(4-thieno [3,2-c]pyridylthio)-10b-methyl-1,2,3,4,4a,5,6,10b-octahydrobenzo[f]quinolin-3-on] gave an inhibition at 0.3 µM [1] of 58% and an inhibition at 0.3 µM [2] of 40%.

For CN1C(=O)CC[C@]2(C)c3ccc(Sc4ccc5nc6ccccc6c(=O)n5n4)cc3CC[C@@H]12 [Example 176, (+)-(4aR)-(10bR)-4-methyl-8-(10-oxo-10H-2-pyridazino[6,1-b]-quinazolinylthio)-10b-methyl-1,2,3,4,4a,5,6,10b-octahydrobenzo[f]quinolin-3-one], the inhibition at 0.3 µM [1] was 25% and the inhibition at 0.3 µM [2] was 15%.

Work on CN1C(=O)CC[C@]2(C)c3ccc(Sc4nc(-c5ccccc5)cc5ccccc45)cc3CC[C@@H]12 [Example 177, (+)-(4aR)-(10bR)-4-methyl-8-(3-phenyl-1-isoquinolinylthio)-10b-methyl-1,2,3,4,4a,5,6,10b-octahydrobenzo[f]quinolin-3-one] yielded an inhibition at 0.3 µM [1] of 58% and an inhibition at 0.3 µM [2] of 15%.

COc1ccc(-c2c(-c3ccccc3)c(Sc3ccc4c(c3)CC[C@H]3N(C)C(=O)CC[C@]43C)nc3ccccc23)cc1 [Example 179, (+)-(4aR)-(10bR)-4-methyl-8-[3-phenyl-4-(4-methoxyphenyl)-2-quinolinylthio]-10b-methyl-1,2,3,4,4a,5,6, 10b-octahydrobenzo[f]quinolin-3-one] gave an inhibition at 0.3 µM [1] of 61% and an inhibition at 0.3 µM [2] of 28%.
